Results as given in patent publication US20220160815A1, “PEPTIDES AND USES THEREOF” (LATERAL IP PTY LTD, priority 2019, published 2022).
Several values for one entry are separate records, joined by “and”; a condition that tells them apart may be missing. Equal values may be shown once.

Key:
Type in all cases: in vivo, human
migraine [1] = experiment: Case studies 1-3: oral LAT8881 capsules taken during a migraine attack, self-rated pain and nausea
migraine [2] = experiment: Case study 4: LAT8881 injected into the right greater occipital nerve during a migraine attack; conditions: 0.4 mg injected into right greater occipital nerve
Procedure: The subject was a person that suffers from migraines and occipital neuralgia. The subject presented with bilateral tenderness of both occipital nerve sites and bilateral headaches, bitemporally and behind the eyes, all indicative of a migraine attack.
Dosage: 0.4 mg of LAT8881 (SEQ ID NO:2) injected into the right greater occipital nerve.

migraine headache = experiment: Randomised, placebo-controlled, double-blind, crossover proof of concept study of oral LAT8881 in acute migraine headache; conditions: 60 mg oral
From the text: The primary objective of this study was to evaluate the effect of oral LAT8881 on migraine headache compared with placebo, when assessed by the headache severity on an 11-point Numeric Rating Scale (NRS).
The secondary objectives of this study included: • a) to evaluate the effect of oral LAT8881 on migraine-associated symptoms compared with placebo, when assessed by the change in symptoms based on a 11-point Likert scale; • b) to investigate the percentage of subjects achieving “no headache pain” following treatment with oral LAT8881 compared with placebo at any time-point to 8 hours post dose, with no use of rescue medication; and • c) to evaluate the safety and tolerability of single doses of oral LAT8881 in subjects with migraine headache.
This was a randomised, placebo-controlled, double-blind, crossover, Phase Ha proof of concept study to investigate the efficacy and safety of oral LAT8881 (SEQ ID NO:2) in acute migraine headache with or without aura.
Subjects entered into the study were randomised to receive IMP (LAT8881; 60 mg or placebo), taken at the onset (within one hour from the onset of pain) of a migraine headache of moderate to severe intensity [Numeric rating scale (NRS)≥4]. Subjects were advised not to take rescue medication until at least 2 hours post dose with LAT8881. Subjects were given one dose of IMP (2 capsules), to treat one migraine headache.
After treatment of one migraine headache (or a maximum 28 days), the subject was asked to return to the clinic for re-evaluation and crossover to the second treatment. In the second treatment period, subjects were asked to take IMP in the same manner as in treatment period 1.
Subjects entered into the study were randomised to receive IMP (LAT8881; 60 mg or placebo; orally), to be taken at the onset (within one hour from the onset of pain) of a migraine headache of moderate to severe intensity.
Primary efficacy endpoints included a change in migraine headache pain score, using an 11-point NRS, (0=none, 10=worst imaginable), from the time of dosing to 0.5, 1.0, 1.5, 2, 4, 8 and 24 hours post dose. Pain was recorded in the subject' diary and was expected to reflect the subject's pain at the time of recording.
Secondary efficacy endpoints included: • a) Change in migraine-associated symptoms of nausea, photophobia and phonophobia. Symptoms were assessed on an 11-point Likert scale with 0=no symptoms and 10 being severe symptoms at time of dosing and at 0.5, 1.0, 1.5, 2, 4, 8 and 24 hours post dose; • b) Change in each subject's most troublesome symptom that may include nausea, photophobia and phonophobia cognitive impairment, dizziness and functional disability. Symptoms were assessed on an 11-point Likert scale with 0=no symptoms and 10 being severe symptoms at time of dosing and at 0.5, 1.0, 1.5, 2, 4, 8 and 24 hours post dose; and • c) The percentage of subjects achieving “no headache pain” at 0.5, 1.0, 1.5, 2, 4 and 8 hours post dose.
Post-hoc analyses were undertaken to assess the responder rate at each time point after dose of IMP. Two classifications of responder were defined: at least 30% change from baseline in NRS score and an NRS score of less than or equal to 3 at the post dose time points. After unblinding, it was discovered that one subject had recorded a pre-dose NRS score of 2 in period 1, a major protocol deviation as the instructions were to take IMP within one hour of the onset of a migraine headache of moderate to severe intensity (NRS>=4). This subject's data for this period was excluded. The responder rate for each treatment and difference between LAT8881 and placebo (95% confidence interval) at each time point are provided in Table 2, below (P1=Period 1; P2=Period 2; Photo=Photophobia; Phono=Phonophobia). FIGS. 1-4 show selected examples of NSR Pain Scores of subjects that completed the study and who received treatment with either placebo or with LAT8881 (SEQ ID NO:2; 60 mg per dose, orally).

[3] = Case Study 2, 1 mg, 4 hours after dosing, 8 out of 10 at time of dosing
[4] = 2 subjects menstruating at the time of the migraine, NRS pain score
[5] = of the 15 subjects who completed the study
[6] = subjects who showed a benefit, NRS pain score
[7] = subjects who were slightly worse, NRS pain score

YLRIVQCRSVEGSCGF (listed as Homo sapiens) [LAT8881, C-terminal fragment of human growth hormone (hGH) spanning amino acid residues 178-192, with an additional tyrosine residue at the N-terminus]
migraine pain rating (migraine [1]; Case Study 1, 1 mg (four 0.25 mg capsules), an hour after dosing, 8 out of 10 at time of dosing): 7 out of 10
nausea rating (migraine [1]; Case Study 1, 1 mg, 4 hours after dosing, 7 out of 10 at time of dosing): 3 out of 10
migraine pain rating (migraine [1]; Case Study 1, 1 mg, 4 hours after dosing, 8 out of 10 at time of dosing): 6 out of 10
nausea rating (migraine [1]; Case Study 1, 1 mg, an hour after dosing, 7 out of 10 at time of dosing): 5 out of 10
migraine recurrence after dosing (migraine [1]; Case Study 1, 1 mg, subject averages about one migraine per month): No migraine was reported in the following month
migraine pain rating (migraine [1]; Case Study 2, 1 mg (two 0.5 mg capsules), an hour after dosing, 8 out of 10 at time of dosing): 2 out of 10
migraine pain rating (migraine [1]; [3]): 1 out of 10
nausea rating (migraine [1]; [3]): 1 out of 10
nausea rating (migraine [1]; Case Study 2, 1 mg, an hour after dosing, 8 out of 10 at time of dosing): 2 out of 10
migraine recurrence after dosing (migraine [1]; Case Study 2, 1 mg, subject averages about two migraines per month): No migraines reported in the following two months
nausea rating (migraine [1]; Case Study 3, 0.5 mg, overnight, 0 out of 10 at time of dosing): 0 out of 10
migraine recurrence after dosing (migraine [1]; Case Study 3, 0.5 mg, subject has migraines once every 3-6 months): No migraines reported in the following three months
migraine pain reported by subject (migraine [2]; Case Study 4, migraines and occipital neuralgia, within ten minutes): pain-free
other effects reported by subject (migraine [2]; Case Study 4): mental clarity and loss of brain fog
tenderness over the occipital nerve (migraine [2]; Case Study 4, within ten minutes, bilateral tenderness at presentation): no tenderness on either side over the occipital nerve
average score reduction in menstruating subjects (migraine headache; [4]): 6
range of score reduction in menstruating subjects (migraine headache; [4]): 10 to 2
Nausea change 2 hrs LAT8881 (migraine headache; 11-point Likert scale, individual subjects): 0 (2×) and −5 (2×) and −10 and 1 and −1 (4×) and −2 (2×) and 2 and −8 and 3 and −3 and 6
LAT8881 pain score at 2 hours (migraine headache; 11-point NRS (0=none, 10=worst imaginable), individual subjects): 2 and 1 and 0 and 5 (2×) and 8 (3×) and 6 (4×) and 3 (2×) and 4 and 7 and 9
Responder rate (95% CI), 30% change from baseline (migraine headache; 30 minutes post dose): 0
Responder rate (95% CI), NRS Score <= 3 (migraine headache; 30 minutes post dose): 0
Count/Total, NRS Score <= 3 (migraine headache; 30 minutes post dose, responder = NRS score of less than or equal to 3): 0/16
Count/Total, 30% change from baseline (migraine headache; 30 minutes post dose, responder = at least 30% change from baseline in NRS score): 0/16
Count/Total, 30% change from baseline (migraine headache; 1 hour post dose): 2/16
Count/Total, NRS Score <= 3 (migraine headache; 1 hour post dose): 1/16
Responder rate (95% CI), 30% change from baseline (migraine headache; 1 hour post dose): 12.50
Responder rate (95% CI), 30% change from baseline, difference LAT8881 60 mg-Placebo (migraine headache; 1 hour post dose): 12.5 (−3.7, 28.7)
Responder rate (95% CI), NRS Score <= 3 (migraine headache; 1 hour post dose): 6.25
Responder rate (95% CI), NRS Score <= 3, difference LAT8881 60 mg-Placebo (migraine headache; 1 hour post dose): 0 (−16.77, 16.77)
Count/Total, 30% change from baseline (migraine headache; 1.5 hours post dose): 3/16
Count/Total, NRS Score <= 3 (migraine headache; 1.5 hours post dose): 3/16
Responder rate (95% CI), 30% change from baseline (migraine headache; 1.5 hours post dose): 18.75
Responder rate (95% CI), 30% change from baseline, difference LAT8881 60 mg-Placebo (migraine headache; 1.5 hours post dose): 12.5 (−10, 35)
Responder rate (95% CI), NRS Score <= 3 (migraine headache; 1.5 hours post dose): 18.75
Responder rate (95% CI), NRS Score <= 3, difference LAT8881 60 mg-Placebo (migraine headache; 1.5 hours post dose): 12.5 (−10, 35)
subjects menstruating at the time of the migraine who benefited (migraine headache; 2 hours): 2 out of 2
Count/Total, 30% change from baseline (migraine headache; 2 hours post dose): 8/16
Count/Total, NRS Score <= 3 (migraine headache; 2 hours post dose): 5/16
Responder rate (95% CI), 30% change from baseline (migraine headache; 2 hours post dose): 50.00
Responder rate (95% CI), 30% change from baseline, difference LAT8881 60 mg-Placebo (migraine headache; 2 hours post dose): 18.75 (−14.66, 52.16)
Responder rate (95% CI), NRS Score <= 3 (migraine headache; 2 hours post dose): 31.25
Responder rate (95% CI), NRS Score <= 3, difference LAT8881 60 mg-Placebo (migraine headache; 2 hours post dose): 25 (-0.62, 50.62)
Count/Total, 30% change from baseline (migraine headache; 4 hours post dose): 8/16
Count/Total, NRS Score <= 3 (migraine headache; 4 hours post dose): 5/16
Responder rate (95% CI), 30% change from baseline (migraine headache; 4 hours post dose): 50.00
Responder rate (95% CI), 30% change from baseline, difference LAT8881 60 mg-Placebo (migraine headache; 4 hours post dose): 0 (−34.65, 34.65)
Responder rate (95% CI), NRS Score <= 3 (migraine headache; 4 hours post dose): 31.25
Responder rate (95% CI), NRS Score <= 3, difference LAT8881 60 mg-Placebo (migraine headache; 4 hours post dose): −6.25 (-39.09, 26.59)
Count/Total, 30% change from baseline (migraine headache; 8 hours post dose): 14/16
Count/Total, NRS Score <= 3 (migraine headache; 8 hours post dose): 13/16
Responder rate (95% CI), 30% change from baseline (migraine headache; 8 hours post dose): 87.50
Responder rate (95% CI), 30% change from baseline, difference LAT8881 60 mg-Placebo (migraine headache; 8 hours post dose): 25 (−3.73, 53.73)
Responder rate (95% CI), NRS Score <= 3 (migraine headache; 8 hours post dose): 81.25
Responder rate (95% CI), NRS Score <= 3, difference LAT8881 60 mg-Placebo (migraine headache; 8 hours post dose): 25 (−5.93, 55.93)
Count/Total, 30% change from baseline (migraine headache; 24 hours post dose): 16/16
Count/Total, NRS Score <= 3 (migraine headache; 24 hours post dose): 15/16
Responder rate (95% CI), 30% change from baseline (migraine headache; 24 hours post dose): 100.00
Responder rate (95% CI), 30% change from baseline, difference LAT8881 60 mg-Placebo (migraine headache; 24 hours post dose): 12.5 (−3.7, 28.7)
Responder rate (95% CI), NRS Score <= 3 (migraine headache; 24 hours post dose): 93.75
Responder rate (95% CI), NRS Score <= 3, difference LAT8881 60 mg-Placebo (migraine headache; 24 hours post dose): 6.25 (−13.83, 26.33)
LAT8881 change from baseline (migraine headache; NRS pain score, predose to 2 hours, individual subjects): −3 (3×) and −5 and −10 and 1 (3×) and 2 (2×) and −4 (2×) and −2 (3×) and −1 and 0
Most Troublesome, change 2 hrs LAT8881 (migraine headache; most troublesome symptom, 11-point Likert scale, individual subjects): −5 (3×) and −10 and 3 (3×) and 0 (4×) and −4 and 1 and −2 (3×) and −1
number of subjects slightly worse at 2 hours (migraine headache; [5]): 5
number of subjects unchanged at 2 hours (migraine headache; [5]): 1
number of subjects whose pain had reduced to 3 or less after 2 hours (migraine headache; [5]): 4
number of subjects who showed a benefit at 2 hours (migraine headache; of the 15 subjects who completed the study, NRS pain score): 9
Phono change at 2 hrs LAT8881 (migraine headache; phonophobia, 11-point Likert scale, individual subjects): 0 (9×) and −7 and 4 and 2 (2×) and −4 and −1 and −2 and 3
Photo change at 2 hrs LAT8881 (migraine headache; photophobia, 11-point Likert scale, individual subjects): 0 (3×) and −2 (5×) and −7 and 1 (4×) and −6 (2×) and −4
pain score reduction in the subject menstruating at the time of each treatment (migraine headache; placebo led to an increase of 3 in the same subject): 2
median benefit at 2 hours (migraine headache; [6]): 3
range of benefit at 2 hours (migraine headache; [6]): 1-10
median increase at 2 hours (migraine headache; [7]): 2
range of increase at 2 hours (migraine headache; [7]): 1-2
